Source: ChEMBL document CHEMBL3774371, “Pyrrolidinones as Modulators of Neurogenesis” (2016)

Test system: NSC
Assay: Neurogenic activity in human NSC assessed as increase in cells measured as ATP level after 4 days by Cell titre glo assay
Format: functional

| Structure (SMILES) | EC150 [µM] |
| --- | --- |
| COc1cccc(C2CCN(c3ccc(-c4cn[nH]c4)cc3)C2=O)c1 (stereo not drawn) | 0.0405 |
| CCOc1cc(N2CCN(CCc3ccccc3Cl)C2=O)ccc1-c1cn[nH]c1 | 0.1358 |
| O=C1C(c2cccc(Cl)c2)CCN1c1ccc(-c2cn[nH]c2)cc1 (stereo not drawn) | 0.2304 |
| O=C1C(c2ccc(F)cc2)CCN1c1ccc(-c2cn[nH]c2)cc1 (stereo not drawn) | 0.0417 |
| COc1cccc(CC2CCN(c3ccc(-c4cn[nH]c4)c(OC)c3)C2=O)c1 (stereo not drawn) | 0.0239 |
| COc1cc(N2CCC(c3ccccc3Cl)C2=O)ccc1-c1cnco1 (stereo not drawn) | 0.6783 |
| O=C1C(c2ccc(Cl)cc2)CCN1c1ccc(-c2cn[nH]c2)cc1 (stereo not drawn) | 0.384 |
| COc1cc(N2CCN(Cc3cccc(OC(F)(F)F)c3)C2=O)ccc1-c1cn[nH]c1 | 0.0092 |
| COc1cccc(CN2CCN(c3ccc(-c4cn[nH]c4)c(F)c3)C2=O)c1 | 0.0157 |
| CCC1(c2ccccc2)CCN(c2ccc(-c3cnco3)c(OC)c2)C1=O (stereo not drawn) | 3.2257 |
| COc1cc(N2CCC(c3cccc(F)c3)C2=O)ccc1-c1cn[nH]c1 (stereo not drawn) | 0.0776 |
| COc1cc(N2CCC(c3ccccc3)C2=O)ccc1-c1cnco1 (stereo not drawn) | 0.4712 |
| COc1cc(N2CCCN(Cc3ccccc3Cl)C2=O)ccc1-c1cn[nH]c1 | 1.9918 |
| CCOc1cc(N2CCN(CCc3ccccc3OC)C2=O)ccc1-c1cn[nH]c1 | 1.9784 |
| COc1cc(N2CCN(Cc3ccncc3)C2=O)ccc1-c1cn[nH]c1 | 0.042 |
| CCOc1cc(N2CCN(Cc3cccc(OC)c3)C2=O)ccc1-c1cn[nH]c1 | 0.8349 |
| COc1cc(N2CCN(Cc3cccc(C(F)(F)F)c3)C2=O)ccc1-c1cn[nH]c1 | 0.0086 |
| CCOc1cccc(CN2CCN(c3ccc(-c4cn[nH]c4)c(OC)c3)C2=O)c1 | 0.0739 |
